# Laboratory results reported in ChEMBL document CHEMBL1131984, “Synthesis and antitumour activity of novel diterpenequinone salvicine and the analogs” (Bioorg Med Chem Lett, 1999).
# pIC50: −log10 of the molar value. Where “and” joins values, the source holds several entries; their conditions need not be identical. Equal entries are not always repeated.
# What was measured:
# SGC-7901 = experiment: In vitro cytotoxic activity against SGC-7901 stomach cancer solid tumor cell line by MTT assay (microculture terazolium colorimetric); format: functional, cell-based; details: Homo sapiens
# P388 = experiment: In vitro cytotoxic activity against P388 mouse leukemia cell line by MTT assay (microculture terazolium colorimetric); format: functional, cell-based
# SPC-A4 = experiment: In vitro cytotoxic activity against SPC-A4 lung cancer solid tumor cell line by MTT assay (microculture terazolium colorimetric); format: functional, cell-based; details: Homo sapiens
# HL-60 [1] = experiment: In vitro cytotoxic activity against HL-60 human leukemia cell line by MTT assay (microculture terazolium colorimetric); format: functional, cell-based
# HL-60 [2] = experiment: In vitro cytotoxic activity against HL-60 human leukemia cell line was determined by MTT assay (microculture terazolium colorimetric); format: functional, cell-based
# Mus musculus [3] = experiment: In vivo inhibitory activity against murine Lewis lung cancer at a dose of 37.5 mg/kg i.p. (day10); format: functional; details: route intraperitoneal
# Mus musculus [4] = experiment: Ratio of the tumor weight of mice at the initial stage and the final stage of the experiment was reported at a dose of 30 mg/kg (Q2dx9) administered i.p.; format: functional; details: route intraperitoneal
# Mus musculus [5] = experiment: (§1) Ratio of the tumor weight of mice at the initial stage and the final stage of the experiment was reported at a dose of 15 mg/kg i.p. (day 9); format: functional; details: route intraperitoneal
# Mus musculus [6] = experiment: In vivo inhibitory activity against human lung adenocarcinoma xenograft A-549 in mice at a dose of 10 mg/kg (Q2dx10) administered i.p.; format: functional; details: route intraperitoneal
# Mus musculus [7] = experiment: (§2) In vivo inhibitory activity against murine S-180 sarcoma at a dose of 15 mg/kg (day 6); format: functional; details: S-180, 144 h
# Mus musculus [8] = experiment: (§3) Ratio of the tumor weight of mice at the initial stage and the final stage of the experiment was reported at a dose of 7.5 mg/kg i.p. (day 10); format: functional; details: route intraperitoneal
# Mus musculus [9] = experiment: In vivo inhibitory activity against human lung adenocarcinoma xenograft A-549 in mice at a dose of 20 mg/kg (Q2dx9) administered i.p.; format: functional; details: A549, ip, route intraperitoneal
# Mus musculus [10] = experiment: In vivo inhibitory activity against human lung adenocarcinoma xenograft A-549 in mice at a dose of 30 mg/kg (Q2dx9) administered i.p.; format: functional; details: A549, ip, route intraperitoneal
# Mus musculus [11] = experiment: (§4) Ratio of the tumor weight of mice at the initial stage and the final stage of the experiment was reported at a dose of 15 mg/kg (day 6); format: functional
# Mus musculus [12] = experiment: Ratio of the tumor weight of mice at the initial stage and the final stage of the experiment was reported at a dose of 20 mg/kg (Q2dx9) administered i.p.; format: functional; details: route intraperitoneal
# Mus musculus [13] = experiment: In vivo inhibitory activity against human lung adenocarcinoma xenograft A-549 in mice at a dose of 10 mg/kg (Q2dx9) administered i.p.; format: functional; details: A549, ip, route intraperitoneal
# Mus musculus [14] = experiment: Ratio of the tumor weight of mice at the initial stage and the final stage of the experiment was reported at a dose of 3.75 mg/kg i.p. (day 10); format: functional; details: route intraperitoneal
# Mus musculus [15] = experiment: (§5) Ratio of the tumor weight of mice at the initial stage and the final stage of the experiment was reported at a dose of 30 mg/kg (Q2dx10) administered i.p.; format: functional; details: route intraperitoneal
# Mus musculus [16] = experiment: In vivo inhibitory activity against human lung adenocarcinoma xenograft A-549 in mice at a dose of 20 mg/kg (Q2dx10) administered i.p.; format: functional; details: route intraperitoneal
# Mus musculus [17] = experiment: as §5; format: functional; details: route intraperitoneal; remark: listed apart in the source
# Mus musculus [18] = experiment: In vivo inhibitory activity against human lung adenocarcinoma xenograft LAX-83 in mice at a dose of 20 mg/kg (Q2dx10) administered i.p.; format: functional; details: route intraperitoneal
# Mus musculus [19] = experiment: Ratio of the tumor weight of mice at the initial stage and the final stage of the experiment was reported at a dose of 20 mg/kg (Q2dx10) administered i.p.; format: functional; details: route intraperitoneal
# Mus musculus [20] = experiment: as §1; format: functional; details: route intraperitoneal; remark: listed apart in the source
# Mus musculus [21] = experiment: In vivo inhibitory activity against murine S-180 sarcoma at a dose of 3.75 mg/kg (day 7); format: functional; details: S-180, 168 h
# Mus musculus [22] = experiment: In vivo inhibitory activity against murine S-180 sarcoma at a dose of 15 mg/kg i.p. (day 6); format: functional; details: S-180, ip, 144 h, route intraperitoneal
# Mus musculus [23] = experiment: In vivo inhibitory activity against murine S-180 sarcoma at a dose of 7.5 mg/kg i.p. (day 7); format: functional; details: S-180, ip, 168 h, route intraperitoneal
# Mus musculus [24] = experiment: as §3; format: functional; details: route intraperitoneal; remark: listed apart in the source
# Mus musculus [25] = experiment: In vivo inhibitory activity against human lung adenocarcinoma xenograft LAX-83 in mice at a dose of 30 mg/kg (Q2dx10) administered i.p.; format: functional; details: route intraperitoneal
# Mus musculus [26] = experiment: (§6) In vivo inhibitory activity against murine S-180 sarcoma at a dose of 7.5 mg/kg (day 7); format: functional; details: S-180, 168 h
# Mus musculus [27] = experiment: In vivo inhibitory activity against murine Lewis lung cancer at a dose of 7.5 mg/kg i.p. (day10); format: functional; details: ip, 240 h, route intraperitoneal
# Mus musculus [28] = experiment: (§7) Ratio of the tumor weight of mice at the initial stage and the final stage of the experiment was reported at a dose of 7.5 mg/kg (day 7); format: functional
# Mus musculus [29] = experiment: Ratio of the tumor weight of mice at the initial stage and the final stage of the experiment was reported at a dose of 3.75 mg/kg i.p. (day 7); format: functional; details: route intraperitoneal
# Mus musculus [30] = experiment: as §2; format: functional; details: S-180, 144 h; remark: listed apart in the source
# Mus musculus [31] = experiment: In vivo inhibitory activity against human lung adenocarcinoma xenograft LAX-83 in mice at a dose of 10 mg/kg (Q2dx10) administered i.p.; format: functional; details: route intraperitoneal; for inhibition in vivo at 10 mg/kg: ip
# Mus musculus [32] = experiment: In vivo inhibitory activity against murine S-180 sarcoma at a dose of 3.75 mg/kg i.p. (day 7); format: functional; details: S-180, ip, 168 h, route intraperitoneal
# Mus musculus [33] = experiment: Ratio of the tumor weight of mice at the initial stage and the final stage of the experiment was reported at a dose of 3.75 mg/kg (day 7); format: functional
# Mus musculus [34] = experiment: as §7; format: functional; remark: listed apart in the source
# Mus musculus [35] = experiment: as §4; format: functional; remark: listed apart in the source
# Mus musculus [36] = experiment: as §6; format: functional; details: S-180, 168 h; remark: listed apart in the source
# Mus musculus [37] = experiment: In vivo inhibitory activity against murine Lewis lung cancer at a dose of 15 mg/kg i.p. (day10); format: functional; details: route intraperitoneal
# Mus musculus [38] = experiment: Ratio of the tumor weight of mice at the initial stage and the final stage of the experiment was reported at a dose of 10 mg/kg (Q2dx10) administered i.p.; format: functional; details: route intraperitoneal
# Mus musculus [39] = experiment: In vivo inhibitory activity against human lung adenocarcinoma xenograft A-549 in mice at a dose of 30 mg/kg (Q2dx10) administered i.p.; format: functional; details: route intraperitoneal
structure (smiles),measurement,setting,value
Cc1ccc2c(c1CCC1OC1(C)C)C(=O)C(=O)C(C(C)C)=C2 (stereo unspecified),pIC50,SGC-7901,4.15
same,pIC50,P388,5.47
same,pIC50,SPC-A4,5.73
same,pIC50,HL-60 [1],5.35
Cc1ccc2c(c1CCC(Br)C(C)(C)O)C(=O)C(=O)C(C(C)C)=C2 (stereo unspecified),pIC50,SGC-7901,5.21
same,pIC50,P388,5.40
same,pIC50,SPC-A4,5.84
same,pIC50,HL-60 [1],5.34
CC(C)=CCCc1c(C)ccc2c1C(=O)C(=O)C(C(C)C)=C2,pIC50,SGC-7901,5.86
same,pIC50,P388,5.71
same,pIC50,SPC-A4,5.56
same,pIC50,HL-60 [2],5.63
Cc1ccc2c(c1CCC(=O)C(C)C)C(=O)C(=O)C(C(C)C)=C2,pIC50,SGC-7901,5.70
same,pIC50,P388,6.08
same,pIC50,SPC-A4,5.47
same,pIC50,HL-60 [1],6.57
Cc1ccc2c(c1CCC(=O)O)C(=O)C(=O)C(C(C)C)=C2,pIC50,SGC-7901,4.17
same,pIC50,P388,5.84
same,pIC50,SPC-A4,5.58
same,pIC50,HL-60 [1],5.55
Cc1ccc2c(c1CCC(O)C(C)(C)O)C(=O)C(=O)C(C(C)C)=C2 (stereo unspecified),inhibition in vivo at 37.5 mg/kg,"Mus musculus [3]; Mus musculus, Lung, ip, 240 h",12.9%
same,Inhibition,Mus musculus [3]; 37.5 mg/kg,7.5%
same,Tumor weight,Mus musculus [4],1.67 g
same,pIC50,SGC-7901,5.74
same,Tumor weight,Mus musculus [5],0.75 g
same,inhibition in vivo at 10 mg/kg,"Mus musculus [6]; Mus musculus, A549, ip",48.2%
same,Inhibition,Mus musculus [6]; 10 mg/kg,30.15%
same,pIC50,P388,5.46
same,inhibition in vivo at 15 mg/kg,Mus musculus [7],44%
same,Tumor weight,Mus musculus [8],1.32 g
same,inhibition in vivo at 20 mg/kg,Mus musculus [9],53.6%
same,inhibition in vivo at 30 mg/kg,Mus musculus [10],51.2%
same,Tumor weight,Mus musculus [11],0.92 g and 1.06 g
same,Tumor weight,Mus musculus [12],1.59 g
same,inhibition in vivo at 10 mg/kg,Mus musculus [13],25.5%
same,Tumor weight,Mus musculus [14],1.28 g and 1.85 g
same,Tumor weight,Mus musculus [15],0.93 g and 0.44 g
same,Inhibition,Mus musculus [16],60.55% and 27.76%
same,Tumor weight,Mus musculus [17],0.72 g and 0.53 g and 1.02 g
same,Inhibition,Mus musculus [18],26.73% and 17.53% and 9.39%
same,pIC50,SPC-A4,5.61
same,Tumor weight,Mus musculus [19],1.25 g [middle of 5 runs]
same,Tumor weight,Mus musculus [20],0.91 g
same,inhibition in vivo at 3.75 mg/kg,Mus musculus [21],8.4%
same,inhibition in vivo at 15 mg/kg,Mus musculus [22],61.3%
same,inhibition in vivo at 7.5 mg/kg,Mus musculus [23],48.9%
same,pIC50,HL-60 [1],5.45
same,Tumor weight,Mus musculus [24],0.97 g
same,Inhibition,Mus musculus [25],40.31% and 51.42% and 61.59%
same,inhibition in vivo at 7.5 mg/kg,Mus musculus [26],32.2%
same,inhibition in vivo at 7.5 mg/kg,Mus musculus [27],34%
same,Tumor weight,Mus musculus [28],1.07 g and 1.4 g
same,Tumor weight,Mus musculus [29],1.52 g
same,inhibition in vivo at 15 mg/kg,Mus musculus [30],48.9%
same,inhibition in vivo at 10 mg/kg,Mus musculus [31]; Mus musculus,41%
same,inhibition in vivo at 10 mg/kg,Mus musculus [31],28%
same,Inhibition,Mus musculus [31]; 10 mg/kg,31.23%
same,inhibition in vivo at 3.75 mg/kg,Mus musculus [32],37.2%
same,Tumor weight,Mus musculus [33],1.99 g and 1.72 g
same,Tumor weight,Mus musculus [34],1.22 g
same,Tumor weight,Mus musculus [35],0.93 g
same,inhibition in vivo at 7.5 mg/kg,Mus musculus [36],35.5%
same,inhibition in vivo at 15 mg/kg,"Mus musculus [37]; Mus musculus, Lung, ip, 240 h",49%
same,Inhibition,Mus musculus [37]; 15 mg/kg,54.5%
same,Tumor weight,Mus musculus [38],1.13 g [middle of 5 runs]
same,Inhibition,Mus musculus [39],55.6% and 80.14%
